# Assay results taken from ChEMBL document CHEMBL5390239, “A Novel 7H-[1,2,4]Triazolo[3,4-b]thiadiazine-based Cystic Fibrosis Transmembrane Conductance Regulator Potentiator Directed toward Treatment of Cystic Fibrosis” (ACS Med Chem Lett, 2023).
# Active and inactive are the calls of the source. The rule behind the calls is not given here.
# Test system: Cystic fibrosis transmembrane conductance regulator (Homo sapiens), P13569 [N1303K]
# Assay: Corrector activity at HRP tagged CFTR N1303K mutant (unknown origin) expressed in FRT cells assessed as stabilization of CFTR mutant in plasma membrane by measuring enhanced HRP signal at 5 uM incubated for 24 hrs by ELISA
# Details: filed as activator
# Chain of Cystic fibrosis transmembrane conductance regulator (Homo sapiens), P13569 [N1303K] (P13569 whole entry N1303K): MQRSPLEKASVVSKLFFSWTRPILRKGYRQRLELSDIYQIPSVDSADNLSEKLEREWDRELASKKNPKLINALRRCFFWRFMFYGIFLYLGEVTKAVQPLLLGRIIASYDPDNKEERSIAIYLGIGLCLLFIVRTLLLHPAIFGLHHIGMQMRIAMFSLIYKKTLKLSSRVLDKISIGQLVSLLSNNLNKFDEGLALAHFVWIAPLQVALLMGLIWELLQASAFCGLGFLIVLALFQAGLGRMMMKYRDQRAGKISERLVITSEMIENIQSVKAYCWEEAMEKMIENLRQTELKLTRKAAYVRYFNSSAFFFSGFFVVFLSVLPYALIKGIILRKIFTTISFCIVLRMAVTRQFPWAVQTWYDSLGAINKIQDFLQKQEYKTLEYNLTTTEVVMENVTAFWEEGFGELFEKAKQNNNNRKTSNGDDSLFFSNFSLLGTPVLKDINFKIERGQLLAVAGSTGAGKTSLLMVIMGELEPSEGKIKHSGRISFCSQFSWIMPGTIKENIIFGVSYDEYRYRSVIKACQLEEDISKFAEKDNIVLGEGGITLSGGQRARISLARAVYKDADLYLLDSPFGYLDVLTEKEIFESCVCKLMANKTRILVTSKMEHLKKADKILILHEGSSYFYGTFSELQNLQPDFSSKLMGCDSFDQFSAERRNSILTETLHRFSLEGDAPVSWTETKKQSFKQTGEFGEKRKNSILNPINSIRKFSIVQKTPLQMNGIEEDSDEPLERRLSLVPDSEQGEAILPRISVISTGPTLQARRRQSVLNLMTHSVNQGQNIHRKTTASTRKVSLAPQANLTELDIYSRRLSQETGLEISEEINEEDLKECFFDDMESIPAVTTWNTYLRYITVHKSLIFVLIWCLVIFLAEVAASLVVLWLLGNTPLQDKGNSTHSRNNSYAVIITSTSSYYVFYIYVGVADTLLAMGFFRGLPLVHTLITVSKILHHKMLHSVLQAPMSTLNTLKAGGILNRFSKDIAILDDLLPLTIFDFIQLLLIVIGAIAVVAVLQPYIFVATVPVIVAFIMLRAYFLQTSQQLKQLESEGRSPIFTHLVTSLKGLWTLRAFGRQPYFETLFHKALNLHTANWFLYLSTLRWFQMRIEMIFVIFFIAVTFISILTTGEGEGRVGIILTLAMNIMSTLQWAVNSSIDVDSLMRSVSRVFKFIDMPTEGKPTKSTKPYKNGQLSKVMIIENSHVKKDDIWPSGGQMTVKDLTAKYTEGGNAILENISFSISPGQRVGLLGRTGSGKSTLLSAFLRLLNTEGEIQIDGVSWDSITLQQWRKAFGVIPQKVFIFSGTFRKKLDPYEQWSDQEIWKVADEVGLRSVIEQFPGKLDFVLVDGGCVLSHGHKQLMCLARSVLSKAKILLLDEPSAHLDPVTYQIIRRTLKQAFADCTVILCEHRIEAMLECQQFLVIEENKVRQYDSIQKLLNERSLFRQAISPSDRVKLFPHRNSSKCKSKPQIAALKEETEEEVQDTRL
row,SMILES,Activity
1,CCc1nnc2n1N=C(c1ccc(OC)c(OC)c1)CS2,Active

# Target: Cystic fibrosis transmembrane conductance regulator (Homo sapiens, UniProt P13569, G551D)
# Sequence (P13569 whole entry G551D): as the sequence (P13569 whole entry N1303K) above, with G551D, K1303N counted along it
# Assay: Potentiation of CFTR G551D mutant (unknown origin) expressed in FRT cells assessed as increase in chloride current in presence of VX-770 by voltage clamp electrophysiology recording
# Format: cell-based
# Details: not given
row,SMILES,EC50 [nM]
1,CCc1nnc2n1N=C(c1ccc(OC)c(OC)c1)CS2,~940

# Test system: Cystic fibrosis transmembrane conductance regulator (Homo sapiens), P13569 [G551D]
# Sequence (P13569 whole entry G551D): as the sequence (P13569 whole entry N1303K) above, with G551D, K1303N counted along it
# Assay: Potentiation of CFTR G551D mutant (unknown origin) expressed in FRT cells assessed as increase in chloride current at 10 uM in presence of VX-770 by voltage clamp electrophysiology recording relative to VX-770 alone
# Format: cell-based
# Details: filed as activator
row,SMILES,Activity [%]
1,COc1cc(Br)c(-c2nnc3n2N=C(C(C)C)CS3)cc1OC,106
2,CCc1nnc2n1N=C(c1ccc(OC)c(OC)c1)CS2,204
3,CCC1=Nn2c(nnc2-c2cccc(Cl)c2)SC1,162
4,CCC1=Nn2c(nnc2-c2ccc(OC)c(OC)c2)SC1,107
5,COc1ccc(F)c(-c2nnc3n2N=C(C(C)C)CS3)c1,237
6,CCc1nnc2n1N=C(c1ccc(Cl)c(Cl)c1)CS2,103
7,CCC1=Nn2c(nnc2-c2cccc(Cl)c2Cl)SC1,129
8,FC(F)(F)C1=Nn2c(nnc2-c2cc(Cl)ccc2Br)SC1,171
9,COc1ccc(C2=Nn3c(nnc3-c3ccc(Cl)cc3Cl)SC2)cc1,142
10,CCC1=Nn2c(nnc2-c2ccc(Cl)c(Cl)c2)SC1,187
11,CCC1=Nn2c(nnc2-c2cc(Cl)ccc2Br)SC1,118
12,FC(F)(F)C1=Nn2c(nnc2-c2ccc(Cl)cc2Cl)SC1,159
13,CCC1=Nn2c(nnc2-c2ccc(Cl)cc2Cl)SC1,257
14,CC(C)C1=Nn2c(nnc2-c2cc(Cl)ccc2Cl)SC1,196
15,CC(C)(C)C1=Nn2c(nnc2-c2ccc(Cl)cc2Cl)SC1,379
16,COc1ccc(OC)c(-c2nnc3n2N=C(C(C)C)CS3)c1,166
17,CC1=Nn2c(nnc2-c2cc(Cl)ccc2Br)SC1,155
18,CC(C)C1=Nn2c(nnc2-c2ccc(Cl)cc2Cl)SC1,204
19,CC(C)C1=Nn2c(nnc2-c2cc(Cl)ccc2Br)SC1,267
20,CCC1=Nn2c(nnc2-c2cc(OC)c(OC)c(OC)c2)SC1,119
21,CC(C)(C)C1=Nn2c(nnc2-c2cc(Cl)ccc2Br)SC1,267
22,CC1=Nn2c(nnc2-c2ccc(Cl)cc2Cl)SC1,137
23,CCC1=Nn2c(nnc2-c2ccc(Cl)cc2)SC1,149
24,COc1ccc(Br)c(-c2nnc3n2N=C(C(C)C)CS3)c1,232
